The target of this assay is T1, human DGAT1 (Homo sapiens, UniProt O75907).
T1 construct: Full length human DGAT10RF (1467 bp); 6xHis (pFastBac HTa vector leader) (N); made in house; host or cells: Sf21 insect cells (baculovirus); microsome fraction
T1 sequence (O75907 1-488): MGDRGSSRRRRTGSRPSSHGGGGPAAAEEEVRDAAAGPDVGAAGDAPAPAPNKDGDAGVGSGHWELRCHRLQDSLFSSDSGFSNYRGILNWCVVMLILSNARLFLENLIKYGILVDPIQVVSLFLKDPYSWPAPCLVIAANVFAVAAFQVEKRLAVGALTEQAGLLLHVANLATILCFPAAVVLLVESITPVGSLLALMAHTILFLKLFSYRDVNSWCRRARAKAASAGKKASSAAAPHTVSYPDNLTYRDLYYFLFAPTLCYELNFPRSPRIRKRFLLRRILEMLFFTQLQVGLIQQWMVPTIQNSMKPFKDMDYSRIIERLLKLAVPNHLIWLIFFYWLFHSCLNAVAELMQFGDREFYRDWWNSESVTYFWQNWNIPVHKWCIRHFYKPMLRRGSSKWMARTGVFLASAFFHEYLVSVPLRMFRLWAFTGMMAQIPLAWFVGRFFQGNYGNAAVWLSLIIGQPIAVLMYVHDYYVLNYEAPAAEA
As to the kind of experiment: Evaluation of DGAT1 enzyme inhibition (14C-oleoyl CoA, TLC of triglyceride). The assay is classed as biochemical. The following applies: human DGAT1 microsomes from Sf21 cells, 30° C., 20 min. As for the experimental part: DGAT assays for compound screening were carried out in 96-well round bottom plates in a total volume of 50 μl containing 25 mM Hepes pH 7.4, 150 mM NaCl, 2 mM MgCl2, 20 mM sodium fluoride, 1 mM dithiothreitol, 0.5 mg/mL BSA, 0.1% Triton X100, 200 uM DAG (1,2-dioleoyl-sn-glycerol) and 15 μM [^14C] oleoyl CoA (specific activity 50-60 mCi/mmol) and a range of inhibitor concentrations in 1% DMSO. Reactions were initiated by the addition of human DGAT1 microsomes (0.4 μg/well) followed by incubation at 30° C. for 20 min. At the end of incubation, reactions were stopped by the addition of 5 μl 0.5N HCl, then 4 μl of each reaction was spotted directly onto a silica gel 60 (20×20 cm) TLC plate pre-scored to give twenty 1 cm wide lanes for lipid separation. […]
Following chromatography, the triglyceride spots were cut out and placed in a scintillation vial for counting. The percentage inhibition values were calculated relative to control and where appropriate IC50 values were derived using the 4 parameter logistic model in XL fit.
The enzyme source used for the assay was prepared from Sf21 cells infected with baculovirus expressing human DGAT1. Full length human DGAT10RF (1467 bp) (Nucleotide Accession: NM 012079; Protein Accession: NP036211) was PCR amplified from human liver cDNA (Marathon Ready) and cloned into pFastBac HTa vector (Life Technologies) containing a 6-Histidine N-terminus. […]

The term IC50 denotes the concentration that inhibits the measured activity by half. Read a high IC50 as weaker potency in that assay. For `COC(=O)[C@H]1CC[C@H](c2ccc(NC(=O)c3cc4ccccc4s3)cn2)CC1` [Example 114, Trans-4-{5-[(Benzo[b]thiophene-2-carbonyl)amino]-pyridin-2-yl}-cyclohexane-carboxylic acid methyl ester], the 50% inhibitory concentration (IC50) is 1800 nM.
The compound `COc1ccc(C)cc1NC(=O)Nc1ccc([C@H]2CC[C@](O)(CC(=O)O)CC2)cc1` [Example 137, Syn-(1-Hydroxy-4-{4-[3-(2-methoxy-5-methylphenyl)-ureido]phenyl}-cyclohexyl)-acetic acid] showed an IC50 of 1300 nM.

The values above are taken from patent publication US20100093733A1, “AMIDE AND UREA DERIVATIVES FOR THE TREATMENT OF METABOLIC DISEASES” (PROSIDION LIMITED, priority 2007, published 2010).
